The text below walks through data of patent US20250320138A1 (priority 2022, published 2025).

Experiment [1] concerns chlorine-resistant Methylobacterium strain. Format: cell-based, Methylobacterium fujisawaense.
For experiment [2] the test system is unchanged. The format is cell-based, Methylobacterium fujisawaense. The source holds these as a separate data set.

Values joined by “and” are separate entries in the source; they are usually repeats but may differ in a detail not shown here. Equal values may be shown once.

Turning to `O=[O+][O-]` [ozone], the bactericidal rate in experiment [1] is 0.0% and 9.4% and 2.1% and 5.0%. In addition, the “inner structure of cell body (electron microscope)” value in experiment [2] is given as “an organization is packed inside the cell body similarly to the blank”.
